{"source": "patent US10682420B2", "about": "“Breast cancer therapy based on hormone receptor status with nanoparticles comprising taxane” (Abraxis BioScience, LLC, priority 2006, dated 2020)", "key": {"metastatic breast cancer": {"tested_on": "metastatic breast cancer", "conditions": "in vivo", "text": "Patients were HER-2/neu negative with a life expectancy of greater than 3 months. Patients had no prior chemotherapy for metastatic disease, no prior capecitabine therapy, and no prior fluoropyrimidine therapy and paclitaxel chemotherapy given in an adjuvant setting.\nThe primary endpoint was objective response rate and safety/toxicity, with evaluation performed after every 2 cycles. A secondary endpoint was time to progression."}, "[1]": {"tested_on": "MDA-MB-435 human breast tumor xenografts", "assay": "HKP and Abraxane in MDA-MB-435 xenografts", "assay_type": "in vivo, mice", "conditions": "nineteen weeks of treatment; HKP 250 ug i.v. weekly x16; Abraxane 10 mg/kg/day i.v. x5 days", "excerpt": "The antiangiogenic activity of small synthetic pro-apoptotic peptides composed of two functional domains, one targeting the CD13 receptors (aminopeptidase N) on tumor microvessels and the other disrupting the mitochondrial membrane following internalization have previously been reported. See Nat Med. 1999 September; 5(9): 1032-8.\nMethods: MDA-MB-435 human tumor xenografts were established at an average tumor volume of 100 mm^3, mice were randomized into groups of 12-13 animals and treated with HKP, Abraxane®, or HKP and Abraxane®. HKP was delivered i.v. (250 ug), once a week, for 16 weeks. Abraxane® was administered i.v., daily for 5 days at 10 mg/kg/day only for the first week of treatment. The Abraxane® dose used was substantially below its MTD (30 mg/kg/day, qd×5) to prevent the tumor from complete regression so effect of HKP could be noted."}, "[2]": {"conditions": "mouse, in vivo", "text": "Methods: Toxicity of Abraxane® and Taxotere® was compared in a dose-ranging study in nude mice given the drugs on a q4d×3 schedule."}, "cells [3]": {"tested_on": "cells", "assay": "In vitro cellular cytotoxicity assay", "assay_type": "cell-based", "conditions": "Abraxane 1 to 24 nM", "method": "Cells were treated with Abraxane® in a range of concentrations (1 to 24 nM)."}, "cells [4]": {"tested_on": "cells", "assay": "In vitro clonogenic assay", "assay_type": "cell-based", "method": "Cells were treated with saline control, Abraxane® alone, VEGF-A alone, Avastin® alone, Abraxane®+VEGF-A or Abraxane®+Avastin®."}, "[5]": {"tested_on": "Luciferase-expressing MDA-MB-231 human breast cancer xenografts", "assay": "Abraxane and Avastin on growth of luciferase-expressing MDA-MB-231 xenografts", "assay_type": "in vivo, female nude (nu/nu) mice", "method": "Abraxane®, either alone or in combination, was administered at 10 mg/kg/day daily for 5 days in two cycles separated by 1 week. Some groups were administered Abraxane® at 10 mg/kg daily for 5 days for only one cycle. […] Mice were monitored for tumor growth and drug toxicity. Mice were sacrificed when the mean tumor volume in the saline-treated control group reached 2000 mm^3.\nTumor growth inhibition (TGI) was calculated by comparing mean tumor volume of test groups to that of the control group at the last measurement of the control group."}, "[6]": {"tested_on": "metastasis of luciferase-expressing MDA-MB-231 tumor cells to the lymph nodes and lungs", "assay": "Abraxane and Avastin on metastasis by luciferase activity", "assay_type": "in vivo, female nude (nu/nu) mice", "method": "Abraxane®, either alone or in combination, was administered at 10 mg/kg/day daily for 5 days in two cycles separated by 1 week. Some groups were administered Abraxane® at 10 mg/kg daily for 5 days for only one cycle. […] Mice were sacrificed when the mean tumor volume in the saline-treated control group reached 2000 mm^3. Axillary lymph nodes and both lobes of the lungs were removed from each mouse and cellular extracts were prepared. The presence of MDA-MB-231 cells in these tissues was evaluated by analysis of luciferase activity and was an indicator of metastasis from the primary tumor. Luciferase activity was measured in extracts from 10 lymph nodes and both lobes of the lungs on the day of sacrifice (day 65 after tumor implantation). A value greater than 500 light units per 20 μl lysate was rated as positive for presence of MDA-MB-231 cells and for incidence of metastasis.\nAs used herein, incidence refers to the presence of luciferase activity in tissue from each mouse."}}, "data": [{"molecule": "CCCCCOC(=O)Nc1nc(=O)n([C@@H]2O[C@H](C)[C@@H](O)[C@H]2O)cc1F", "note": "[capecitabine]", "values": [{"measurement": "main toxicity related to the agent within the combination", "setting": "metastatic breast cancer", "result": "hand foot syndrome"}]}, {"molecule": "CNGRC-GG-d(KLAKLAK)2 [HKP]", "values": [{"measurement": "tumor volume", "setting": "[1]", "result": "4,372 mm^3"}]}, {"molecule": "Taxotere®", "values": [{"measurement": "maximum tolerated dose (MTD)", "setting": "[2]", "result": 15, "unit": "mg/kg"}]}, {"molecule": "Avastin®: anti-VEGF antibody", "values": [{"measurement": "effect of addition on in vitro cytotoxicity of Abraxane", "setting": "cells [3]", "result": "increased the in vitro cytotoxicity of Abraxane®"}, {"measurement": "number of colonies formed", "setting": "cells [4]", "result": "slight reduction in the number of colonies formed"}, {"measurement": "% TGI", "setting": "[5]; Avastin Dose 4 mg/kg", "result": 12.56, "unit": "%"}, {"measurement": "Mean Tumor Volume (mm^3)", "setting": "[5]; Avastin Dose 4 mg/kg twice a week for 6 weeks", "result": "2089 ± 251", "unit": "mm^3"}, {"measurement": "% Complete Regression", "setting": "[5]; Avastin Dose 4 mg/kg, day 65", "result": 0, "unit": "%"}, {"measurement": "metastasis by luciferase activity in tissue extracts", "setting": "[6]", "result": "did not significantly inhibit metastasis"}]}]}
